Measured values: patent publication US11648254B2 (Kumquat Biosciences Inc., priority 2021, dated 2023)
Where two headings read alike, the source gives them in different places.

Tests used:
SOS1 = SOS1 (Homo sapiens (Human), UniProt Q07889); experiment: Ras-SOS interaction assay (HTRF); format: biochemical
Text: The ability of any compound of the present disclosure to reduce a Ras protein signaling output by, e.g., interfering or disrupting interaction (or binding) between SOS1 and a Ras protein can be assessed in vitro. For example, the equilibrium interaction of human SOS1 (hSOS1) with human wildtype Kras or K-Ras mutant (e.g., hK-Ras G12C mutant, or hK-RasG12C) can be assessed as a proxy or an indication for a subject compound's ability to inhibit SOS. Detection of such interaction is achieved by measuring homogenous time-resolved fluorescence resonance energy transfer (HTRF) from (i) a fluorescence resonance energy transfer (FRET) donor (e.g., antiGST-Europium) that is bound to GST-tagged K-RasG12C to (ii) a FRET acceptor (e.g., anti-6His-XL665) bound to a His-tagged hSOS1.
The assay buffer can contain 5 mM HEPES pH 7.4, 150 mM NaCl, 10 mM EDTA, 1 mM DTT, 0.05% BSA, 0.0025% (v/v) Igepal and 100 mM KF. A Ras working solution is prepared in assay buffer containing typically 10 nM of the protein construct (e.g., GST-tagged hK-RasG12C) and 2 nM of the FRET donor (e.g., antiGST-Eu(K) from Cisbio, France). A SOS1 working solution is prepared in assay buffer containing typically 10 nM of the protein construct (e.g., His-hSOS1) and 10 nM of the FRET acceptor (e.g., anti-6His-XL665 from Cisbio, France). An inhibitor control solution is prepared in assay buffer containing 10 nM of the FRET acceptor without the SOS1 protein.
A fixed reaction mixture with or without test compound is transferred into a 384-well plate. Ras working solution is added to all wells of the test plate. SOS1 working solution is added to all wells except for those that are subsequently filled the inhibitor control solution. After approximately 60 min incubation, the fluorescence is measured with a M1000Pro plate reader (Tecan) using HTRF detection (excitation 337 nm, emission 1: 620 nm, emission 2: 665 nm). Compounds are tested in duplicates at different concentrations (for example, 10 μM, 2.5 μM, 0.63 μM, 0.16 μM, 0.04 μM, 0.01 μM test compound). The ratiometric data (i.e., emission 2 divided by emission 1) is used to calculate IC50 values against SOS1 using GraphPad Prism (GraphPad software).

[1] = test system: MIA PaCa-2 cells (K-Ras G12C); experiment: Ras-SOS cellular growth inhibition assay (CellTiter-Glo, 3D); format: cell-based
Description: MIA PaCa-2 (ATCC CRL-1420) and NCI-H1792 (ATCC CRL-5895) cell lines comprise a G12C mutation can be used to assess Ras cellular signaling in vitro, e.g., in response to a subject compound of the present disclosure. […] Cell culture medium (comprising, for example, MIA PaCa-2 cells) is prepared with DMEM/Ham's F12 (e.g., with stable Glutamine, 10% FCS, and 2.5% Horse Serum. NCI-H1792 culture medium is prepared with RPMI 1640 (e.g., with stable Glutamine) and 10% FCS. A CellTiter-Glo (CTG) luminescent based assay (Promega) is used to assess growth of the cells, as a measurement of the ability of the compounds herein to inhibit Ras signaling in the cells. The cells (e.g., 800-1200 per well) are seeded in their respective culture medium in standard tissue culture-treated ultra-low attachment surface 96-well format plates (Corning Costar #3474). The day after plating, cells are treated with a dilution series (e.g., a 9 point 3-fold dilution series) of the compounds herein (e.g., approximately 125 μl final volume per well). Cell viability can be monitored (e.g., approximately 5 days later) according to the manufacturer's recommended instructions, where the CellTiter-Glo reagent is added (e.g., approximately 65 μl), vigorously mixed, covered, and placed on a plate shaker (e.g., approximately for 20 min) to ensure sufficient cell lysis prior to assessment of luminescent signal. The IC50 values are determined using the four-parameter fit. The resulting IC50 value is a measurement of the ability of the compounds herein to reduce cell growth of Ras-driven cells as representative tumor cells.

[2] = test system: NCI-H1975 cells (EGFR T790M L858R); experiment: EGFR-SOS cellular inhibition assay (CellTiter-Glo, 3D); format: cell-based
[3] = K-RasG13D utilized, read-out: IC50 inhibition of SOS
[4] = K-RasG13D, read-out: IC50 value against SOS1
[5] = MIA PaCa-2, 3D proliferation, about 5 days, read-out: Bio-Cell-Prolif-3D (MiaPaca2 IC50)
[6] = MIA PaCa-2, read-out: IC50 in inhibiting MIA PaCa-2 cell growth
[7] = NCI-H1975, 3D proliferation, about 5 days, read-out: Bio-Cell-Prolif-3D (H1975 IC50)
[8] = NCI-H1975, EGFR T790M L858R, read-out: IC50 in inhibiting growth of NCI-H1975 cell line
[9] = Homo sapiens, MIA PaCa-2, 120 h, MIA PaCa-2, 3D proliferation, about 5 days, read-out: Bio-Cell-Prolif-3D (MiaPaca2 IC50)
[10] = Homo sapiens, MIA PaCa-2, MIA PaCa-2, read-out: IC50 in inhibiting MIA PaCa-2 cell growth
[11] = Homo sapiens, 120 h, NCI-H1975, 3D proliferation, about 5 days, read-out: Bio-Cell-Prolif-3D (H1975 IC50)
[12] = Homo sapiens, NCI-H1975, EGFR T790M L858R, read-out: IC50 in inhibiting growth of NCI-H1975 cell line

Molecule	IC50 (SOS1; [3]) [nM]	IC50 (SOS1; [4]) [nM]	IC50 [1, 5] [nM]	IC50 [1, 6] [nM]	IC50 [2, 7] [nM]	IC50 [2, 8] [nM]	IC50 [1, 9] [nM]	IC50 [1, 10] [nM]	IC50 [2, 11] [nM]	IC50 [2, 12] [nM]
4-(4-((1-(3-(difluoro(tetrahydrofuran-3-yl)methyl)-2-fluorophenyl)ethyl)amino)-7-methoxy-2-methylpyrido[2,3-d]pyrimidin-6-yl)tetrahydro-2H-thiopyran 1,1-dioxide [Compound 148]	< 100	< 50	≤ 1000	< 500	≤ 1000	< 500				
Cc1nc(N[C@H](C)c2cccc(C(F)(F)C(C)O)c2F)c2cc(C3(C#N)CC3)c(Cl)nc2n1 (stereo in doubt) [Compound 333, 1-(7-chloro-4-(((R)-1-(3-((S)-1,1-difluoro-2-hydroxypropyl)-2-fluorophenyl)ethyl)amino)-2-methylpyrido[2,3-d]pyrimidin-6-yl)cyclopropane-1-carbonitrile]	< 100	< 50					≤ 1000	< 500	≤ 1000	< 500
COc1nc2nc(C)nc(N[C@H](C)c3cccc(C(F)F)c3F)c2cc1C1(C#N)CC1 [Compound 101, 1-(4-((R)-1-(2-fluoro-3-(difluoromethyl)phenyl)ethylamino)-7-methoxy-2-methylpyrido[2,3-d]pyrimidin-6-yl)cyclopropanecarbonitrile]	< 100						≤ 1000		≤ 1000	
Cc1nc(N[C@H](C)c2cccc(C(F)F)c2F)c2cc(C3CCN(C(C)C)CC3)c(Cl)nc2n1 [Compound 104, (R)-7-chloro-N-(1-(3-(difluoromethyl)-2-fluorophenyl)ethyl)-6-(1-isopropylpiperidin-4-yl)-2-methylpyrido[2,3-d]pyrimidin-4-amine]	< 100	< 50					≤ 1000	< 500	≤ 1000	< 500
COc1nc2nc(C)nc(N[C@H](C)c3cccc(C(F)F)c3F)c2cc1CN1CCN(C(C)C)CC1 [Compound 105, (R)—N-(1-(3-(difluoromethyl)-2-fluorophenyl)ethyl)-6-((4-isopropylpiperazin-1-yl)methyl)-7-methoxy-2-methylpyrido[2,3-d]pyrimidin-4-amine]	< 100	< 50					≤ 1000	< 500	≤ 1000	< 500
COc1nc2nc(C)nc(N[C@H](C)c3cccc(C(F)F)c3F)c2cc1N1CCNCC1 [Compound 110, (R)-N-(1-(3-(difluoromethyl)-2-fluorophenyl)ethyl)-7-methoxy-2-methyl-6-(piperazin-1-yl)pyrido[2,3-d]pyrimidin-4-amine]	< 100						≤ 1000		≤ 1000	
COc1nc2nc(C)nc(N[C@H](C)c3cccc(C(F)F)c3F)c2cc1C1CCN(C(C)C)CC1 [Compound 112, (R)-N-(1-(3-(difluoromethyl)-2-fluorophenyl)ethyl)-6-(1-isopropylpiperidin-4-yl)-7-methoxy-2-methylpyrido[2,3-d]pyrimidin-4-amine]	< 100	< 50					≤ 1000	< 500	≤ 1000	< 500
COc1nc2nc(C)nc(N[C@H](C)c3cccc(C(F)F)c3F)c2cc1C1CCN(C)CC1 [Compound 113, (R)-N-(1-(3-(difluoromethyl)-2-fluorophenyl)ethyl)-7-methoxy-2-methyl-6-(1-methylpiperidin-4-yl)pyrido[2,3-d]pyrimidin-4-amine]	< 100	< 50					≤ 1000	< 500	≤ 1000	< 500
COc1nc2nc(C)nc(N[C@H](C)c3cccc(C(F)F)c3F)c2cc1S(=O)(=O)N1CCNCC1 [Compound 114, (R)-N-(1-(3-(difluoromethyl)-2-fluorophenyl)ethyl)-7-methoxy-2-methyl-6-(piperazin-1-ylsulfonyl)pyrido[2,3-d]pyrimidin-4-amine]	< 100	< 50					≤ 1000		≤ 1000	
Cc1nc(N[C@H](C)c2cccc(C(F)F)c2F)c2cc(C3CCN(C)CC3)c(OCCN(C)C)nc2n1 [Compound 155]							≤ 1000		≤ 1000	
COc1nc2nc(C)nc(N[C@H](C)c3cccc(C(F)(F)C4CCN(C)CC4)c3F)c2cc1N1CCN(C(C)C)CC1 [Compound 182, (R)-N-(1-(3-(difluoro(1-methylpiperidin-4-yl)methyl)-2-fluorophenyl)ethyl)-6-(4-isopropylpiperazin-1-yl)-7-methoxy-2-methylpyrido[2,3-d]pyrimidin-4-amine]							≤ 1000	< 500	≤ 1000	< 500
COc1nc2nc(C)nc(N[C@H](C)c3cccc(C(F)(F)C4CCN(C(C)C)CC4)c3F)c2cc1C1(C#N)CC1 [Compound 377, (R)-1-(4-((1-(3-(difluoro(1-isopropylpiperidin-4-yl)methyl)-2-fluorophenyl)ethyl)amino)-7-methoxy-2-methylpyrido[2,3-d]pyrimidin-6-yl)cyclopropane-1-carbonitrile]							≤ 1000	< 500	≤ 1000	< 500
COc1nc2nc(C)nc(N[C@H](C)c3cccc(C(F)(F)F)c3C)c2cc1C1CCN(C)CC1 [Compound 380, (R)-7-methoxy-2-methyl-N-(1-(2-methyl-3-(trifluoromethyl)phenyl)ethyl)-6-(1-methylpiperidin-4-yl)pyrido[2,3-d] pyrimidin-4-amine]	< 100	< 50						< 500		
COc1nc2nc(CCN3CCC3)nc(N[C@H](C)c3cccc(C(F)(F)F)c3C)c2cc1C1(C#N)CC1 [Compound 427, (R)-1-(2-(2-(azetidin-1-yl)ethyl)-7-methoxy-4-((1-(2-methyl-3-(trifluoromethyl)phenyl)ethyl)amino)pyrido[2,3-d]pyrimidin-6-yl) cyclopropane-1-carbonitrile]	< 100	< 50								
(R)-4-(4-((1-(3-(2-(2-(dimethylamino)ethoxy)-1,1-difluoroethyl)-2-fluorophenyl)ethyl)amino)-7-methoxy-2-methylpyrido[2,3-d]pyrimidin-6-yl)tetrahydro-2H-thiopyran 1,1-dioxide [Compound 271]			≤ 1000	< 500	≤ 1000	< 500				
